Results as given in PubChem BioAssay (NCI).
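Assay format: 96-well plates, 48-hour exposure. Abbreviation: GI50, concentration required for 50% inhibition of growth. TGI marks complete inhibition of growth.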

Tests used:
Experiment in all cases: DTP human tumour cell line panel, 48 h
SNB-75 CNS = test system: SNB-75 CNS
A498 renal = test system: A498 renal
K-562 leukemia = test system: K-562 leukemia
SK-MEL-2 melanoma = test system: SK-MEL-2 melanoma
ACHN renal = test system: ACHN renal
MDA-MB-231 breast = test system: MDA-MB-231 breast
LOX IMVI melanoma = test system: LOX IMVI melanoma
MDA-MB-468 breast = test system: MDA-MB-468 breast
HS 578T breast = test system: HS 578T breast
MOLT-4 leukemia = test system: MOLT-4 leukemia
UACC-257 melanoma = test system: UACC-257 melanoma
SN12C renal = test system: SN12C renal
HCT-116 colon = test system: HCT-116 colon
NCI-H23 lung = test system: NCI-H23 lung
RXF 393 renal = test system: RXF 393 renal
HOP-62 NSCLC = test system: HOP-62 NSCLC
RPMI-8226 leukemia = test system: RPMI-8226 leukemia
NCI-H460 lung = test system: NCI-H460 lung
T-47D breast = test system: T-47D breast
HL-60(TB) leukemia = test system: HL-60(TB) leukemia
SF-539 CNS = test system: SF-539 CNS
HOP-92 NSCLC = test system: HOP-92 NSCLC
HT29 colon = test system: HT29 colon
DU-145 prostate = test system: DU-145 prostate
M14 melanoma = test system: M14 melanoma
SNB-19 CNS = test system: SNB-19 CNS
NCI/ADR-RES ovarian = test system: NCI/ADR-RES ovarian
TK-10 renal = test system: TK-10 renal
SF-295 CNS = test system: SF-295 CNS
PC-3 prostate = test system: PC-3 prostate
MCF7 breast = test system: MCF7 breast
MDA-MB-435 = test system: MDA-MB-435
SK-MEL-5 melanoma = test system: SK-MEL-5 melanoma
HCT-15 colon = test system: HCT-15 colon
UACC-62 melanoma = test system: UACC-62 melanoma
NCI-H522 lung = test system: NCI-H522 lung
KM12 colon = test system: KM12 colon
A549 NSCLC = test system: A549 NSCLC
UO-31 renal = test system: UO-31 renal
CCRF-CEM leukemia = test system: CCRF-CEM leukemia
COLO 205 colon = test system: COLO 205 colon
OVCAR-5 ovarian = test system: OVCAR-5 ovarian
CAKI-1 renal = test system: CAKI-1 renal
U251 CNS = test system: U251 CNS
NCI-H226 lung = test system: NCI-H226 lung
OVCAR-4 ovarian = test system: OVCAR-4 ovarian
IGROV1 ovarian = test system: IGROV1 ovarian
SK-OV-3 ovarian = test system: SK-OV-3 ovarian
OVCAR-3 ovarian = test system: OVCAR-3 ovarian
OVCAR-8 ovarian = test system: OVCAR-8 ovarian
HCC-2998 colon = test system: HCC-2998 colon
MALME-3M melanoma = test system: MALME-3M melanoma
786-0 renal = test system: 786-0 renal
EKVX NSCLC = test system: EKVX NSCLC
BT-549 breast = test system: BT-549 breast
SF-268 CNS = test system: SF-268 CNS
SW-620 colon = test system: SW-620 colon
SR leukemia = test system: SR leukemia
SK-MEL-28 melanoma = test system: SK-MEL-28 melanoma

## O=C(CNc1nc(-c2ccccc2)cs1)Nc1ccc([N+](=O)[O-])cc1
SNB-75 CNS
  GI50: 3.16 µM
  TGI: 15.5 µM
A498 renal
  GI50: 16.9 µM
  TGI: 32.3 µM
K-562 leukemia
  GI50: 3.26 µM
  TGI: > 100 µM
SK-MEL-2 melanoma
  GI50: 14.2 µM
  TGI: 30.5 µM
ACHN renal
  GI50: 2.39 µM
  TGI: 6.98 µM
MDA-MB-231 breast
  GI50: 3.07 µM
  TGI: 12.5 µM
LOX IMVI melanoma
  GI50: 2.2 µM
  TGI: 11.1 µM
MDA-MB-468 breast
  GI50: 1.55 µM
  TGI: 3.16 µM
HS 578T breast
  GI50: 10.2 µM
  TGI: > 100 µM
MOLT-4 leukemia
  GI50: 3.66 µM
  TGI: 23 µM
UACC-257 melanoma
  GI50: 8.41 µM
  TGI: 21.8 µM
SN12C renal
  GI50: 3.37 µM
  TGI: 13.6 µM
HCT-116 colon
  GI50: 3.22 µM
  TGI: 14.2 µM
NCI-H23 lung
  GI50: 3.32 µM
  TGI: 13.7 µM
RXF 393 renal
  GI50: 2.77 µM
HOP-62 NSCLC
  GI50: 14.4 µM
  TGI: 35 µM
RPMI-8226 leukemia
  GI50: 3.25 µM
  TGI: 19.8 µM
NCI-H460 lung
  GI50: 10.2 µM
  TGI: 23.8 µM
T-47D breast
  GI50: 4.23 µM
  TGI: 21.3 µM
HL-60(TB) leukemia
  GI50: 2.97 µM
  TGI: 10.6 µM
SF-539 CNS
  GI50: 3.19 µM
  TGI: 10.2 µM
HOP-92 NSCLC
  GI50: 6.65 µM
  TGI: 25.1 µM
HT29 colon
  GI50: 3.73 µM
  TGI: 15.8 µM
DU-145 prostate
  GI50: 10.9 µM
  TGI: 25.4 µM
M14 melanoma
  GI50: 5.07 µM
  TGI: 19.7 µM
SNB-19 CNS
  GI50: 10.7 µM
  TGI: 22.5 µM
NCI/ADR-RES ovarian
  GI50: 3.77 µM
  TGI: 20.4 µM
TK-10 renal
  GI50: 11.1 µM
  TGI: 24.2 µM
SF-295 CNS
  GI50: 8.63 µM
  TGI: 21.6 µM
PC-3 prostate
  GI50: 4.75 µM
  TGI: 23.2 µM
MCF7 breast
  GI50: 2.9 µM
  TGI: 12.1 µM
MDA-MB-435
  GI50: 6.79 µM
  TGI: 19.2 µM
SK-MEL-5 melanoma
  GI50: 5.82 µM
  TGI: 18.6 µM
HCT-15 colon
  GI50: 3.47 µM
  TGI: 13.1 µM
UACC-62 melanoma
  GI50: 4.41 µM
  TGI: 17 µM
NCI-H522 lung
  GI50: 1.9 µM
  TGI: 3.92 µM
KM12 colon
  GI50: 8.27 µM
  TGI: 20.7 µM
A549 NSCLC
  GI50: 9.71 µM
  TGI: 24.4 µM
UO-31 renal
  GI50: 4.58 µM
  TGI: 18.1 µM
CCRF-CEM leukemia
  GI50: 2.71 µM
  TGI: 13.4 µM
COLO 205 colon
  GI50: 4.59 µM
  TGI: 15.9 µM
OVCAR-5 ovarian
  GI50: 7.22 µM
  TGI: 20.1 µM
CAKI-1 renal
  GI50: 5.26 µM
  TGI: 18.3 µM
U251 CNS
  GI50: 2.85 µM
  TGI: 11.1 µM
NCI-H226 lung
  GI50: 12.5 µM
  TGI: 28.3 µM
OVCAR-4 ovarian
  GI50: 3.52 µM
  TGI: 12.8 µM
IGROV1 ovarian
  GI50: 3.84 µM
  TGI: 16 µM
SK-OV-3 ovarian
  GI50: 16.4 µM
  TGI: 40.1 µM
OVCAR-3 ovarian
  GI50: 3.65 µM
  TGI: 13.3 µM
OVCAR-8 ovarian
  GI50: 11.1 µM
  TGI: 28.2 µM
HCC-2998 colon
  GI50: 3.5 µM
  TGI: 12.9 µM
MALME-3M melanoma
  GI50: 2.29 µM
  TGI: 6.21 µM
786-0 renal
  GI50: 4.1 µM
  TGI: 14.1 µM
EKVX NSCLC
  GI50: 3.8 µM
  TGI: 14.6 µM
BT-549 breast
  GI50: 2.35 µM
  TGI: 10.1 µM
SF-268 CNS
  GI50: 4.82 µM
  TGI: 29.5 µM
SW-620 colon
  GI50: 5.01 µM
  TGI: 18 µM
SR leukemia
  GI50: 6.62 µM
  TGI: 41.3 µM
SK-MEL-28 melanoma
  GI50: 10.3 µM
  TGI: 21.9 µM
